# Article PMC9603901, “Therapeutic Potential of Antimicrobial Peptide PN5 against Multidrug-Resistant E. coli and Anti-Inflammatory Activity in a Septic Mouse Model” (Microbiology Spectrum, 2022)
# Where two headings read alike, the source gives them in different places. Where no end group is shown, it is not given here.
# Columns and labels:
# MDR E. coli ASEC 6 = test: microbe, parasite or virus in culture; type: cell-based, Escherichia coli; settings: microdilution, LB, 18 to 24 h, 37°C, three independent experiments
# Method: (§1) Bacterial cells were cultured at 37°C in the appropriate culture media with shaking (180 rpm). Luria-Bertani broth (LB) (244620; BD Difco) was used for E. coli ATCC 25922, ASEC strains, and B. subtilis KCTC 2217. Nutrient broth (NB) (234000; BD Difco) was used for P. aeruginosa ATCC 27853, S. Typhimurium KCTC 1926, and A. baumannii KCTC 2508. Tryptic soy broth (TSB) (211825; BD Difco) was used for S. aureus ATCC 25923. Finally, brain heart infusion (BHI) (237500; BD Difco) was used for L. monocytogenes KCTC 3710. The antimicrobial activity of each peptide was determined using microdilution assays. To this end, 2-fold serial dilution series of each peptide (from 1 to 64 μM) were added to duplicate media with 10 mM sodium phosphate buffer (pH 7.4). Fifty microliters of the peptide and antibiotic solution was added to each well of a 96-well plate (32096, surface nontreatment; SPL Life Sciences). Then, 50 μL of 2 × 10^5 CFU mL^−1 of bacteria was added to each well, and the samples were incubated for 18 to 24 h without shaking at 37°C.
# MDR E. coli ASEC 19 = test: microbe, parasite or virus in culture; type: cell-based, Escherichia coli; settings: microdilution, LB, 18 to 24 h, 37°C, three independent experiments
# Method: as §1
# MDR E. coli ASEC 13 = test: microbe, parasite or virus in culture; type: cell-based, Escherichia coli; settings: microdilution, LB, 18 to 24 h, 37°C, three independent experiments
# Method: as §1
# E. coli ATCC 25922 [1] = test: microbe, parasite or virus in culture; type: cell-based, Escherichia coli; settings: LB, 2 × 10^5 CFU mL^−1, 18 to 24 h, 37°C, three independent experiments
# Method: as §1
# MDR E. coli ASEC 3 = test: microbe, parasite or virus in culture; type: cell-based, Escherichia coli; settings: microdilution, LB, 18 to 24 h, 37°C, three independent experiments
# Method: as §1
# MDR E. coli ASEC 9 = test: microbe, parasite or virus in culture; type: cell-based, Escherichia coli; settings: microdilution, LB, 18 to 24 h, 37°C, three independent experiments
# Method: as §1
# MDR E. coli ASEC 8 = test: microbe, parasite or virus in culture; type: cell-based, Escherichia coli; settings: microdilution, LB, 18 to 24 h, 37°C, three independent experiments
# Method: as §1
# MDR E. coli ASEC 10 [2] = test: microbe, parasite or virus in culture; type: cell-based, Escherichia coli; settings: microdilution, LB, 18 to 24 h, 37°C, three independent experiments
# Method: as §1
# MDR E. coli ASEC 2 = test: microbe, parasite or virus in culture; type: cell-based, Escherichia coli; settings: microdilution, LB, 18 to 24 h, 37°C, three independent experiments
# Method: as §1
# MDR E. coli ASEC 7 = test: microbe, parasite or virus in culture; type: cell-based, Escherichia coli; settings: microdilution, LB, 18 to 24 h, 37°C, three independent experiments
# Method: as §1
# MDR E. coli ASEC 18 = test: microbe, parasite or virus in culture; type: cell-based, Escherichia coli; settings: microdilution, LB, 18 to 24 h, 37°C, three independent experiments
# Method: as §1
# MDR E. coli ASEC 12 = test: microbe, parasite or virus in culture; type: cell-based, Escherichia coli; settings: microdilution, LB, 18 to 24 h, 37°C, three independent experiments
# Method: as §1
# MDR E. coli ASEC 15 = test: microbe, parasite or virus in culture; type: cell-based, Escherichia coli; settings: microdilution, LB, 18 to 24 h, 37°C, three independent experiments
# Method: as §1
# MDR E. coli ASEC 11 = test: microbe, parasite or virus in culture; type: cell-based, Escherichia coli; settings: microdilution, LB, 18 to 24 h, 37°C, three independent experiments
# Method: as §1
# MDR E. coli ASEC 14 = test: microbe, parasite or virus in culture; type: cell-based, Escherichia coli; settings: microdilution, LB, 18 to 24 h, 37°C, three independent experiments
# Method: as §1
# MDR E. coli ASEC 4 = test system: MDR E. coli ASEC 4; set-up: method as in Asan hospital; key to susceptibility category: S: susceptible; R: resistant; I: intermediate; settings: ref Asan hospital, cited from earlier work; for MIC: ASEC 4 (ESBL), resistance information of clinical isolate; for susceptibility category: ASEC 4
# MDR E. coli ASEC 10 [3] = test system: MDR E. coli ASEC 10; set-up: method as in Asan hospital; key to susceptibility category: S: susceptible; R: resistant; I: intermediate; settings: ref Asan hospital, cited from earlier work; for MIC: ASEC 10 (ESBL), resistance information of clinical isolate; for susceptibility category: ASEC 10
# [4] = test system: E. coli – Meropenem (Passage 25); test: microbe, parasite or virus in culture; type: cell-based, Escherichia coli
# Method: (§2) E. coli ATCC 25922 cells were incubated overnight at 37°C in LB medium with shaking (180 rpm) and then adjusted to 2 × 10^5 CFU mL^−1; 0.5× MIC of PN5 and antibiotics were added to the medium and cultured overnight at 37°C with aeration (180 rpm). The MIC was determined by measuring the OD600 using a Versa Max microplate reader. On the next day, to measure the MIC with the bacteria grown after treatment with 0.5× MIC, the bacteria and antibiotic were adjusted to the same concentration, and the bacteria were cultured by adding 0.5× MIC in the same manner. The initial culture was continuously cultured for 25 passages in this manner.
# E. coli ATCC 25922 [5] = test: microbe, parasite or virus in culture; type: cell-based, Escherichia coli; settings: for MIC: Escherichia coli
# Method: as §2
# [6] = test system: E. coli – Ceftazidime (Passage 25); test: microbe, parasite or virus in culture; type: cell-based, Escherichia coli
# Method: as §2
# [7] = Escherichia coli, read-out: MIC
# [8] = Escherichia coli, ATCC25922, microdilution, read-out: MIC
# [9] = Escherichia coli, read-out: MIC, value in parentheses
# [10] = E. coli ATCC 25922 passaged with 0.5× MIC of the same agent
# [11] = ATCC25922, read-out: MIC after 25 passages
# [12] = ATCC25922, read-out: MIC at passage 1
Molecule,MIC (MDR E. coli ASEC 6; [7]) [µM],MIC (MDR E. coli ASEC 19; [7]) [µM],MIC (MDR E. coli ASEC 13; [7]) [µM],MIC (E. coli ATCC 25922 [1]; [8]) [µM],MIC (MDR E. coli ASEC 3; [7]) [µM],MIC (MDR E. coli ASEC 9; [7]) [µM],MIC (MDR E. coli ASEC 8; [7]) [µM],MIC (MDR E. coli ASEC 10 [2]; [7]) [µM],MIC (MDR E. coli ASEC 2; [7]) [µM],MIC (MDR E. coli ASEC 7; [7]) [µM],MIC (MDR E. coli ASEC 18; [7]) [µM],MIC (MDR E. coli ASEC 12; [7]) [µM],MIC (MDR E. coli ASEC 15; [7]) [µM],MIC (MDR E. coli ASEC 11; [7]) [µM],MIC (MDR E. coli ASEC 14; [7]) [µM],MIC (MDR E. coli ASEC 4) [µg/mL],susceptibility category (MDR E. coli ASEC 4),MIC (MDR E. coli ASEC 10 [3]),susceptibility category (MDR E. coli ASEC 10 [3]),"MIC ([4]; Escherichia coli, ATCC25922) [µM]",also measured
CO/N=C(\C(=O)N[C@@H]1C(=O)N2C(C(=O)O)=C(COC(C)=O)CS[C@H]12)c1csc(N)n1 [Cefotaxime],> 32,> 32,> 32,< 1,> 32,> 32,> 32,> 32,> 32,> 32,> 32,> 32,> 32,> 32,> 32,> 32,R,> 32 µg/mL,R,,
CC(C)(O/N=C(\C(=O)N[C@@H]1C(=O)N2C(C(=O)[O-])=C(C[n+]3ccccc3)CS[C@H]12)c1csc(N)n1)C(=O)O [Ceftazidime],> 32,> 32,> 32,< 1,> 32,> 32,> 32,32,> 32,16,> 32,> 32,> 32,> 32,> 32,> 16,R,16 µg/mL,R,0.25,"MIC [4, 9]: 0.25 µM; fold increase of MIC after 25 passages (E. coli ATCC 25922 [5]; [10]): 512 fold; MIC (E. coli ATCC 25922 [5]; [11]): 128 µM; MIC (E. coli ATCC 25922 [5]; [12]): 0.25 µM; MIC ([6]; Escherichia coli, ATCC25922): 128 µM; MIC [6, 9]: 0.25 µM"
C[C@@H](O)[C@H]1C(=O)N2C(C(=O)O)=C(S[C@@H]3CN[C@H](C(=O)N(C)C)C3)[C@H](C)[C@H]12 [Meropenem],16,8,2,< 1,> 32,< 1,< 1,< 1,> 32,< 1,< 1,16,< 1,< 1,8,> 8,R,<= 1 μg mL-1,S,0.25,"MIC [4, 9]: 0.0312 µM; fold increase of MIC after 25 passages (E. coli ATCC 25922 [5]; [10]): 8 fold; MIC (E. coli ATCC 25922 [5]; [11]): 0.25 µM; MIC (E. coli ATCC 25922 [5]; [12]): 0.0312 µM; MIC ([6]; Escherichia coli, ATCC25922): 0.0312 µM; MIC [6, 9]: 0.0312 µM"
FKFLARTGKFL-NH2 [PN5],,,,,,,,,,,,,,,,,,,,,"MIC (MDR E. coli ASEC 6): 4 (5.30) μM; MIC (MDR E. coli ASEC 19): 8 (10.61) μM; MIC (MDR E. coli ASEC 13): 8 (10.61) μM; MIC (E. coli ATCC 25922 [1]; microdilution): 16 (21.22) μM; MIC (MDR E. coli ASEC 3): 8 (10.61) μM; MIC (MDR E. coli ASEC 9): 16 (21.22) μM; MIC (MDR E. coli ASEC 8): 4 (5.30) μM; MIC (MDR E. coli ASEC 10 [2]): 8 (10.61) μM; MIC (MDR E. coli ASEC 2): 2 (2.65) μM; MIC (MDR E. coli ASEC 7): 8 (10.61) μM; MIC (MDR E. coli ASEC 18): 16 (21.22) μM; MIC (MDR E. coli ASEC 12): 2 (2.65) μM; MIC (MDR E. coli ASEC 15): 16 (21.22) μM; MIC (MDR E. coli ASEC 11): 2 (2.65) μM; MIC (MDR E. coli ASEC 14): 2 (2.65) μM; MIC ([4]; E. coli ATCC 25922 with resistance induced by meropenem, passage 25, three independent experiments): 16 µM; MIC after 25 passages (E. coli ATCC 25922 [5]; [10]): 16 µM; MIC ([6]; E. coli ATCC 25922 with resistance induced by ceftazidime, passage 25, three independent experiments): 16 µM"
